Laboratory results as given in patent US11873405B2, “High oleic oil compositions and uses thereof” (priority 2021, dated 2024).

Tests used:
[1] = tested on: E06 mutant (Strain K) microalgae cells; experiment: Selection for tolerance to triparanol: growth in 3-day lipid production culture, 96-deep well block; format: cell-based, Prototheca wickerhamii; details: cells exposed to increasing amounts of triparanol, FIG. 7
Experimental: The cryo-vials were thawed and used to initiate a 10 mL pre-seed culture in bioreactor tube, which was incubated for 72 h at 28° C./200 rpm. Two rounds of selection and enrichment with increasing amounts of triparanol were conducted following the strategy outlined in FIG. 3. […] This population was collected on sterile filters, diluted, and spread on solid media. The resulting clonal isolates were screened in our automated 96-well block-based lipid production and glucose consumption assay. A number of strains with increased oleate levels were identified among the mutant clones (TABLE 5). Strains validated in repeat assays were then assessed for phenotypic stability. Stable strains were cryo-preserved.
Cells were exposed to increasing amounts of triparanol during a 3-day lipid production culture in a 96-deep well block. Significant inhibition of growth occurred at […] concentrations >2 μM. Rare surviving cells presumed to be in wells where 50% inhibition was observed were recovered by sterile filtration, washed with and collected from the filter in M20+glucose pre-seed media. The cultures were then used to initiate another round of selection. By the third round of selection (right panels), a subtle difference in the growth of the mutant population compared to the mock-mutagenized controls was observed. […]

[2] = tested on: E06 mutant (Strain K) microalgae cells; experiment: Selection for tolerance to membrane stress: growth (OD750) in 3-day lipid production culture, 96-deep well block; format: cell-based, Prototheca wickerhamii; details: fixed 1.6 μM triparanol plus increasing phenethyl alcohol, FIG. 6
Experimental: The mutant strain, Strain 0_E06 (Strain E06), while not phenotypically stable, consistently achieved higher oleate levels than the mutant lineage that gave rise to Strain 1 (TABLE 3). As such, this mutant lineage was selected for further rounds of classical strain improvement, and designated as “Strain K”. Following overnight growth in M21+40 g/L glucose seed media to mid-log phase, the E06 mutant was exposed to 270 mM ethyl methanesulfonate (EMS) in 0.1 M potassium phosphate buffer (pH 7.0) for 45 min at room temperature in dark and with periodic gentle agitation. Mutagenesis was terminated with the addition of a sodium thiosulfate solution to final concentration of 3% (w/v). In parallel, a mock-mutagenized control cell population was taken through all the same manipulations, except for exposure to EMS. Cells were collected using 0.2-micron filter sterilization units, washed extensively with water, and then washed with and into 5 mL M20+5 g/L glucose pre-seed media. Pre-seed cultures were incubated at 28° C./900 rpm/80% humidity for 72 h. An 8% (v/v) inoculum from each culture was then used to initiate a seed culture in 10 mL of standard M21+5 g/L glucose seed media in 50-mL bioreactor tubes. […] Growth was then assessed by measuring optical density at 750 nm wavelength (OD750) in a Molecular Devices Spectramax M5 plate reader. […]

OCCc1ccccc1 [phenethyl alcohol]
concentrations at which significant inhibition of growth occurred [1]: > 2 µM | concentrations at which significant inhibition of growth occurred [2]: > 3.6 mM
